The source made the active and inactive calls. No cut-off for these calls is given here.
Assays:
Protein smoothened [1] = molecular target: Protein smoothened (Mus musculus, UniProt P56726); assay: (§1) Antagonist activity at SMO in mouse NIH/3T3 cells harboring Gli-responsive firefly luciferase gene assessed as inhibition of SAG-induced response preincubated for 2 hrs followed by SAG addition and measured after 24 hrs by Bright-Glo luciferase assay; format: cell-based
Protein smoothened [2] = molecular target: T1, Protein smoothened (Homo sapiens, UniProt Q99835); assay: Binding affinity to recombinant SMO His103 residue (unknown origin) at 20 uM preincubated for 3 hrs followed by UV irradiation for 15 mins by MS/MS analysis
T1 sequence (Q99835 whole entry): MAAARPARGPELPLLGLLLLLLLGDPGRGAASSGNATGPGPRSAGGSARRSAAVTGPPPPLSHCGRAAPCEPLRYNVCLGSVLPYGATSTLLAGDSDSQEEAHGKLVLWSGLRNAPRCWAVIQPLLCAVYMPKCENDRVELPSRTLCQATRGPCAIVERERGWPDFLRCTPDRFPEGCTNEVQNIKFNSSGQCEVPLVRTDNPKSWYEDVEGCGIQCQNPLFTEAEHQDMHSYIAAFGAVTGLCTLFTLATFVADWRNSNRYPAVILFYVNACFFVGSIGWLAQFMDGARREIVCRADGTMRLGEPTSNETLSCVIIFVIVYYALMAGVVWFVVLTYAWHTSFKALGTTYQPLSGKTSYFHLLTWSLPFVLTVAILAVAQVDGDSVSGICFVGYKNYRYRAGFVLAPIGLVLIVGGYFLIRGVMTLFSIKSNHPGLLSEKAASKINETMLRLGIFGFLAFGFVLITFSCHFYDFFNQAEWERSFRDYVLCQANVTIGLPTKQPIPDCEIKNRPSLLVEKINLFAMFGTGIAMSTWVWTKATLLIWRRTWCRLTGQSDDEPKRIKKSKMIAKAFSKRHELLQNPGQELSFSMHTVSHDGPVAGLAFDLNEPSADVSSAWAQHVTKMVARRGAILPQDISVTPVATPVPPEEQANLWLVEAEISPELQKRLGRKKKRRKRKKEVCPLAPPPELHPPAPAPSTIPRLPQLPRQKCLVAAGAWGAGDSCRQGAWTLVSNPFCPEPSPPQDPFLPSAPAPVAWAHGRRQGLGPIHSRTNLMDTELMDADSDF

Protein smoothened [3] = molecular target: T1, Protein smoothened; assay: Binding affinity to recombinant SMO Gly527 residue (unknown origin) assessed as modification of INLFAMFGTGIAMSTWVWTKATLLIWRR peptide at 20 uM preincubated for 3 hrs followed by UV irradiation for 15 mins by MS/MS analysis
Protein smoothened [4] = molecular target: T1, Protein smoothened; assay: Displacement of BODIPY-LY from SMO (unknown origin) expressed in HEK293F cells measured after 15 mins by flow cytometric analysis; format: cell-based
Protein smoothened [5] = molecular target: T1, Protein smoothened; assay: Binding affinity to recombinant SMO Thr349 residue (unknown origin) at 20 uM preincubated for 3 hrs followed by UV irradiation for 15 mins by MS/MS analysis
Protein smoothened [6] = molecular target: T1, Protein smoothened; assay: Binding affinity to recombinant SMO Ala345 residue (unknown origin) at 20 uM preincubated for 3 hrs followed by UV irradiation for 15 mins by MS/MS analysis
Protein smoothened [7] = molecular target: T1, Protein smoothened; assay: Binding affinity to recombinant SMO Glu158 residue (unknown origin) at 20 uM preincubated for 3 hrs followed by UV irradiation for 15 mins by MS/MS analysis
Protein smoothened [8] = molecular target: T1, Protein smoothened; assay: Binding affinity to recombinant SMO Gly529 residue (unknown origin) assessed as modification of INLFAMFGTGIAMSTWVWTKATLLIWRR peptide at 20 uM preincubated for 3 hrs followed by UV irradiation for 15 mins by MS/MS analysis
Protein smoothened [9] = molecular target: T1, Protein smoothened; assay: Binding affinity to recombinant SMO Thr528 residue (unknown origin) assessed as modification of INLFAMFGTGIAMSTWVWTKATLLIWRR peptide at 20 uM preincubated for 3 hrs followed by UV irradiation for 15 mins by MS/MS analysis
Protein smoothened [10] = molecular target: T1, Protein smoothened; assay: Binding affinity to recombinant human SMO at 0.1 to 20 uM preincubated for 1 hr followed by 365 nm UV irradiation for 20 mins and subsequent addition of TAMRA-N3 measured after 1 hr by fluorescence-based SDS-PAGE analysis
[11] = molecular target: Protein smoothened (Mus musculus) (UniProt P56726); assay: as §1; format: cell-based
Sequence of Protein smoothened (Mus musculus) (P56726 whole entry): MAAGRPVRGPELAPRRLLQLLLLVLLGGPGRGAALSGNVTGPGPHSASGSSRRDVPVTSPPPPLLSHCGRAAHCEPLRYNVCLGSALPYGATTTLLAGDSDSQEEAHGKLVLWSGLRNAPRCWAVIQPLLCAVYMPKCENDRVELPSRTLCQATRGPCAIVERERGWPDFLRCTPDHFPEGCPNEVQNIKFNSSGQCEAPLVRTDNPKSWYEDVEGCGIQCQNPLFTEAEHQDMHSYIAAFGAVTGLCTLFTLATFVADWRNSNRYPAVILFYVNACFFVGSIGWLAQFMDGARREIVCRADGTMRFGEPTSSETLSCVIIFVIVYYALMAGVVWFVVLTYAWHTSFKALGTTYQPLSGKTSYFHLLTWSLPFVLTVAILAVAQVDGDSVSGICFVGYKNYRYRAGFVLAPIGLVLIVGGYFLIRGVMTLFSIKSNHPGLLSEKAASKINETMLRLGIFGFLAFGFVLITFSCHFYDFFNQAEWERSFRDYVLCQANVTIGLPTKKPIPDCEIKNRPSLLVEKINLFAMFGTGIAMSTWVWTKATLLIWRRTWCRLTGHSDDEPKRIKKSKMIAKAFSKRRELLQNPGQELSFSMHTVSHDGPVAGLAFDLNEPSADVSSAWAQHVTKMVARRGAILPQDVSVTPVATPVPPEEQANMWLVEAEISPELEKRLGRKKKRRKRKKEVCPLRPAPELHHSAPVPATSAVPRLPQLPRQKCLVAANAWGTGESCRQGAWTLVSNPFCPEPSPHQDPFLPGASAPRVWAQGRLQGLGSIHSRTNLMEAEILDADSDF

Protein smoothened [12] = molecular target: T1, Protein smoothened; assay: Binding affinity to recombinant SMO Lys510 residue (unknown origin) at 20 uM preincubated for 3 hrs followed by UV irradiation for 15 mins by MS/MS analysis
Protein smoothened [13] = molecular target: T1, Protein smoothened; assay: Binding affinity to recombinant SMO Leu498 residue (unknown origin) at 20 uM preincubated for 3 hrs followed by UV irradiation for 15 mins by MS/MS analysis
Protein smoothened [14] = molecular target: T1, Protein smoothened; assay: Binding affinity to recombinant SMO Glu135 residue (unknown origin) at 20 uM preincubated for 3 hrs followed by UV irradiation for 15 mins by MS/MS analysis
Protein smoothened [15] = molecular target: T1, Protein smoothened; assay: Binding affinity to recombinant SMO Glu518 residue (unknown origin) assessed as modification of NRPSLLVEK (511 to 519 residue) at 20 uM preincubated for 3 hrs followed by UV irradiation for 15 mins by MS/MS analysis
Protein smoothened [16] = molecular target: T1, Protein smoothened; assay: Binding affinity to recombinant SMO Lys186 residue (unknown origin) at 20 uM preincubated for 3 hrs followed by UV irradiation for 15 mins by MS/MS analysis

Sequence of Protein smoothened (Mus musculus, UniProt P56726) (P56726 whole entry): as above

IC50 (Protein smoothened [1])	Ki (Protein smoothened [4])	SMILES	also measured
3 nM	45 nM	C[C@H]1C(=O)N(c2ccc(Cl)cc2)C(=O)N1Cc1ccc(N=[N+]=[N-])cc1	Activity (Protein smoothened [2]): Active; Activity (Protein smoothened [3]): Active; Activity (Protein smoothened [5]): Active; Activity (Protein smoothened [6]): Active; Activity (Protein smoothened [7]): Active; Activity (Protein smoothened [8]): Active; Activity (Protein smoothened [9]): Active
3790 nM		C[C@H]1C(=O)N(c2ccc(Cl)cc2)C(=S)N1Cc1ccccc1	
31 nM	28 nM	C#CCOc1ccc(N2C(=O)[C@H](C)N(Cc3ccc(N=[N+]=[N-])cc3)C2=O)cc1	Activity (Protein smoothened [10]): Active
59 nM	33 nM	C[C@H]1C(=O)N(c2ccc(Cl)cc2)C(=O)N1Cc1ccccc1	
92 nM		C[C@H]1C(=O)N(c2ccc(Cl)cc2)C(=O)N1CCc1ccccc1	
58 nM	55 nM	C[C@H]1C(=O)N(c2ccc(N=[N+]=[N-])cc2)C(=O)N1Cc1ccccc1	Activity (Protein smoothened [12]): Active; Activity (Protein smoothened [13]): Active; Activity (Protein smoothened [14]): Active; Activity (Protein smoothened [15]): Active; Activity (Protein smoothened [16]): Active

Further lines, the molecule ahead of its results:

SMILES	IC50 (Protein smoothened [1])	Ki (Protein smoothened [4])	also measured
C[C@H]1CN(c2ccc(Cl)cc2)C(=O)N1Cc1ccccc1	4550 nM		
C[C@H]1C(=O)N(c2ccc(Cl)cc2)C(=O)N1Cc1c(F)c(F)c(F)c(F)c1F	7380 nM		
C[C@H]1C(=O)N(c2c(F)c(F)c(F)c(F)c2F)C(=O)N1Cc1ccccc1	1530 nM		
C[C@H]1C(=O)N(Cc2ccc(Cl)cc2)C(=O)N1Cc1ccccc1	8100 nM		
C[C@H]1C(=O)N(c2ccc(Cl)cc2)C(=O)N1CC1CCCCC1	383 nM		
FC(F)(F)Oc1ccc(-c2ccnc(Nc3ccc4[nH]ncc4c3)n2)cc1		30 nM	
C[C@H]1C(=O)N(c2ccc(Cl)cc2)C(=O)N1Cc1ccc(C2(C(F)(F)F)N=N2)cc1			inhibition (Protein smoothened [4]): inactive; Activity [11]: inactive
C[C@H]1C(=O)N(c2ccc(Cl)cc2)C(=O)N1c1ccccc1	547 nM		
C[C@H]1C(=O)N(C2CCCCC2)C(=O)N1Cc1ccccc1	8010 nM		

From ChEMBL document CHEMBL4414554, “Colocalization Strategy Unveils an Underside Binding Site in the Transmembrane Domain of Smoothened Receptor” (J Med Chem, 2019)
